Assay results from ChEMBL document CHEMBL3632521, “A study of ad-proline peptidomimetic inhibitor of melanoma and endothelial cell invasion through activity towards MMP-2 and MMP-9” (Medchemcomm, 2015).
Activity calls are given as the source filed them. The calls are words filed in the database; no cut-off is given here.

Assays:
[1] = target: T1, Matrix metalloproteinase-9 (Homo sapiens, UniProt P14780); test: Inhibition MMP-9 (unknown origin) using Mca-Lys-Pro-Leu-Gly-Leu-Dpa-Ala-Arg-NH2 as substrate preincubated for 5 mins followed by substrate addition measured for 30 mins by fluorometric assay
T1 sequence (P14780 whole entry): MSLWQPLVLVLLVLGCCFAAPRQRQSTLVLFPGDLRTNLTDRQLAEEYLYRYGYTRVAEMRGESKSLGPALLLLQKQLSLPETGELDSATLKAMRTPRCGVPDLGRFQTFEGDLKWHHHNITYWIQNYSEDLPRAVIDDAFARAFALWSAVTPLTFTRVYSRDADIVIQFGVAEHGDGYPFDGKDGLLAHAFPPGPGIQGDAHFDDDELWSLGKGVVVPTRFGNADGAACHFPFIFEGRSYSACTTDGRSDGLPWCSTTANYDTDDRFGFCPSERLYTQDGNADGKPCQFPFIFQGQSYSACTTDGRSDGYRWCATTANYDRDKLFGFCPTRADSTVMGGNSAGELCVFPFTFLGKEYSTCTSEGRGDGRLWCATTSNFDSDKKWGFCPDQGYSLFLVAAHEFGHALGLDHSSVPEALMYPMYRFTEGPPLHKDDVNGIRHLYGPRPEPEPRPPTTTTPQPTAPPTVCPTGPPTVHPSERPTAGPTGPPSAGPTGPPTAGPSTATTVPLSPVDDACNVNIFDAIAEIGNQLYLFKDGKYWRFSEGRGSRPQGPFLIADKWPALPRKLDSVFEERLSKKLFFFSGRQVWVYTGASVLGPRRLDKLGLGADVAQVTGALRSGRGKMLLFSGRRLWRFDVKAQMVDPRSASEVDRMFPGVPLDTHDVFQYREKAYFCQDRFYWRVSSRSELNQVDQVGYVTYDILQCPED

[2] = target: 72 kDa type IV collagenase (Homo sapiens, UniProt P08253); test: Inhibition MMP-2 (unknown origin) using Mca-Lys-Pro-Leu-Gly-Leu-Dpa-Ala-Arg-NH2 as substrate preincubated for 5 mins followed by substrate addition measured for 30 mins by fluorometric assay
72 kDa type IV collagenase, sequence (P08253 whole entry): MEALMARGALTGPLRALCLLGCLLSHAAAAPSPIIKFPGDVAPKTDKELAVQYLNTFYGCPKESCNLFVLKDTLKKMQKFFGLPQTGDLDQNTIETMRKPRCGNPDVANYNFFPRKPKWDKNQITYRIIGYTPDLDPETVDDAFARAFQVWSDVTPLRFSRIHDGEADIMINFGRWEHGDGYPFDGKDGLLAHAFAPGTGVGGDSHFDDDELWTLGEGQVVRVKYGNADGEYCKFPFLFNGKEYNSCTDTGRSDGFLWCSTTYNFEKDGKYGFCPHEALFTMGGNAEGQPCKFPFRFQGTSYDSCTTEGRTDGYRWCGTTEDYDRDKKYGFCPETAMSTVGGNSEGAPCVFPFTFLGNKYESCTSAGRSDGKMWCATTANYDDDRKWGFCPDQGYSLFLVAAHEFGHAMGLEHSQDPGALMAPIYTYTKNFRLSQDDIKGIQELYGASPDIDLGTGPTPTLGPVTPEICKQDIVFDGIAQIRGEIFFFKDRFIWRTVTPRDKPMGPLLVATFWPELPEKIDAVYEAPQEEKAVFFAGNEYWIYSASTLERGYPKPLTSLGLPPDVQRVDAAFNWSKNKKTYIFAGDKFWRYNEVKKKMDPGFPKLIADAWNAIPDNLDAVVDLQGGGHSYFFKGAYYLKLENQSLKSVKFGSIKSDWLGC

Mus musculus = species: Mus musculus; test: Antiangiogenic activity in FVB mouse receiving 20 uM compound containing matrigel mixtures with heparin resuspended in EGM-2 medium assessed as reduction in capillary network formation after 5 days by microscopy based matrigel sponge assay; type: functional, organism-based
[3] = Cytostatic activity in human A375P cells at 2.5 to 50 uM after 24 hrs by trypan blue based inverted-phase microscopic analysis; type: ADME, cell-based
[4] = target: T1, Matrix metalloproteinase-9; test: Inhibition of gelatinolytic activity of pro-MMP9 in human A375P cells assessed as reduction in active form of protein by gelatin zymography; type: cell-based
[5] = Cytotoxic activity in human A375P cells at 2.5 to 50 uM after 24 hrs by trypan blue based inverted-phase microscopic analysis; type: cell-based
EPC = test: Antiinvasive activity in human endothelial progenitor cells at 20 uM after 24 hrs by matrigel assay; type: functional
A375P = test: Antiinvasive activity in human A375P cells assessed as reduction in tumor cell migration at 20 uM measured for 6 hrs by matrigel assay; type: functional, cell-based
[6] = target: T1, Matrix metalloproteinase-9; test: Inhibition of gelatinolytic activity of pro-MMP9 in human endothelial progenitor cells assessed as reduction in active form of protein at 20 uM by gelatin zymography
[7] = Cytostatic activity in human A375P cells at 2.5 to 50 uM after 72 hrs by trypan blue based inverted-phase microscopic analysis; type: ADME, cell-based

## O=C(/C=C/c1ccco1)N[C@H]1C[C@H](C(=O)NO)N(S(=O)(=O)c2ccc(Cl)c(Cl)c2)C1
[1]; read-out: IC50
  IC50: 360 nM

## O=C(N[C@@H]1C[C@H](C(=O)NO)N(S(=O)(=O)c2ccc(Cl)c(Cl)c2)C1)c1cccs1
[1]; read-out: IC50
  IC50: 100 nM
[2]; read-out: IC50
  IC50: 144 nM

## COc1ccc(C(=O)N[C@H]2C[C@H](C(=O)NO)N(S(=O)(=O)c3ccc(Cl)c(Cl)c3)C2)c(OC)c1
[1]; read-out: IC50
  IC50: 1710 nM
[2]
  IC50: Not Active

## COc1ccc(C(=O)N[C@@H]2C[C@H](C(=O)NO)N(S(=O)(=O)c3ccc(Cl)c(Cl)c3)C2)c(OC)c1
Mus musculus
  Activity: Active
[1]; read-out: IC50
  IC50: 560 nM
[3]
  Activity: Non-toxic
[4]
  inhibition: Dose-dependent effect
[5]
  Activity: Non-toxic
EPC
  Activity: Active
A375P
  Activity: Active
[6]
  inhibition: Active
[7]
  Activity: Toxic
[2]; read-out: IC50
  IC50: 450 nM

## O=C(NO)[C@H]1C[C@H](NS(=O)(=O)c2ccc(-c3ccccc3)cc2)CN1S(=O)(=O)c1ccc(Cl)c(Cl)c1
[1]; read-out: IC50
  IC50: 60 nM
[2]; read-out: IC50
  IC50: 360 nM

## O=C(N[C@H]1C[C@H](C(=O)NO)N(S(=O)(=O)c2ccc(Cl)c(Cl)c2)C1)c1cccs1
[1]
  IC50: Not Active

## O=C(NO)[C@H]1C[C@@H](OCc2ccccc2)CN1S(=O)(=O)c1ccc(Cl)c(Cl)c1
[1]; read-out: IC50
  IC50: 900 nM
[2]
  IC50: Not Active

## O=C(NO)[C@H]1C[C@H](n2cc(-c3ccccc3)nn2)CN1S(=O)(=O)c1ccc(Cl)c(Cl)c1
[1]; read-out: IC50
  IC50: 1200 nM

## O=C(NO)[C@H]1C[C@@H](NS(=O)(=O)c2ccc(-c3ccccc3)cc2)CN1S(=O)(=O)c1ccc(Cl)c(Cl)c1
[1]; read-out: IC50
  IC50: 590 nM
[2]
  IC50: Not Active
